Test [1] relates to HCV replicon in HUH-7 cells. Kind of test: HCV replicon FRET assay. Type of test: cell-based, HCV strain 1b. To be noted: Hepatitis C virus. (In antiviral work, replicon cells carry a viral genome segment that copies itself.)
Test [2] addresses T1, HCV NS3/4A protease complex, BMS strain (UniProt P27958, C1454S/C1711G, species not given).
T1 construct: other: HCV NS3/4A enzyme assay; class symbols; numeric values; fused on or other part: three-lysine solubilising tail at the C-terminus of NS4A; purified on Ni-NTA from the pET21b vector (His tag implied)
In words: FRET peptide assay to monitor HCV NS3/4A proteolytic activity (BMS strain). The format is biochemical, HCV genotype 1a. To be noted: read-out: IC50 Range, HCV NS3/4A enzyme assay. In short, it runs like this: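 Recombinant HCV NS3/4A protease complex (BMS strain, genotype 1a), 2-3 nM final (300 pM with 50 μg/ml BSA for very potent compounds), incubated with RET S1 EDANS/DABCYL depsipeptide substrate at 2 μM final. Buffer: 50 mM HEPES pH 7.5, 0.15 M NaCl, 0.1% Triton, 15% glycerol, 10 mM βME. Cleavage followed in real time by fluorescence.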

[3] abbreviates: Huh-7, HCV replicon cell assay, numeric values, read-out: EC50 Range.

We go through 17 compounds from patent US8163921B2, “Hepatitis C virus inhibitors” (Bristol-Myers Squibb Company, priority 2008, dated 2012).

pEC50, pIC50: −log10 of the molar value. Where two headings read alike, the source gives them in different places.

Broadly, the pEC50 is −log10 of the EC50, conventionally taken in molar units. What is called pIC50 is the negative decadic logarithm of the IC50, by convention in mol/L. For `C=C[C@@H]1C[C@]1(NC(=O)[C@@H]1C[C@@H](Oc2ncc(OC)c3ccc(Cl)cc23)CN1C(=O)[C@@H](Nc1nc(-c2ccccc2O)cs1)C(C)(C)C)C(=O)NS(=O)(=O)C1CC1` [Example 50], the pEC50 in test [1] (setting [3]) is 7.72. In addition, the pIC50 in test [2] (numeric values) is 7.41.

Regarding `C=C[C@@H]1C[C@]1(NC(=O)[C@@H]1C[C@@H](Oc2ncc(OC)c3ccc(Cl)cc23)CN1C(=O)[C@@H](Nc1nc(-c2ccc(OC)cc2F)cs1)C(C)(C)C)C(=O)NS(=O)(=O)C1CC1` [Example 51], in test [1] (Huh-7, read-out: EC50 Range), the pEC50 was 7.30 to 9.00. The pIC50 in test [2] (class symbols) was 7.70 to 9.00.

Consider `C=C[C@@H]1C[C@]1(NC(=O)[C@@H]1C[C@@H](Oc2ncc(OC)c3ccc(Cl)cc23)CN1C(=O)[C@@H](Nc1nc(-c2ccc(F)c(Cl)c2)cs1)C(C)(C)C)C(=O)NS(=O)(=O)C1CC1` [Example 52], for which, in test [1] (Huh-7, read-out: EC50 Range), the pEC50 was 7.30 to 9.00. Further, the pIC50 in test [2] (class symbols) was 7.70 to 9.00.

With `C=C[C@@H]1C[C@]1(NC(=O)[C@@H]1C[C@@H](Oc2ncc(OC)c3ccc(Cl)cc23)CN1C(=O)[C@@H](Nc1nc(-c2cc(Cl)cc(Cl)c2F)cs1)C(C)(C)C)C(=O)NS(=O)(=O)C1CC1` [Example 53], in test [1] (setting [3]), the pEC50 was 7.69. Besides, the negative-log IC50 (pIC50) in test [2] (numeric values) was 7.77.

On to `C=C[C@@H]1C[C@]1(NC(=O)[C@@H]1C[C@@H](Oc2ncc(OC)c3ccc(Cl)cc23)CN1C(=O)[C@@H](Nc1nc(-c2cc(C)ccc2OC)cs1)C(C)(C)C)C(=O)NS(=O)(=O)C1CC1` [Example 54], for which the pEC50 in test [1] (Huh-7, read-out: EC50 Range) was 7.30 to 9.00. Further, the pIC50 in test [2] (class symbols) was 7.70 to 9.00.

As to `C=C[C@@H]1C[C@]1(NC(=O)[C@@H]1C[C@@H](Oc2ncc(OC)c3ccc(Cl)cc23)CN1C(=O)[C@@H](Nc1nc(-c2cc(Cl)cc(Cl)c2OC)cs1)C(C)(C)C)C(=O)NS(=O)(=O)C1CC1` [Example 55], in test [1] (Huh-7, read-out: EC50 Range), the pEC50 is 7.30 to 9.00. Moreover, the pIC50 in test [2] (class symbols) was 7.70 to 9.00.

For the compound `C=C[C@@H]1C[C@]1(NC(=O)[C@@H]1C[C@@H](Oc2ncc(OC)c3ccc(Cl)cc23)CN1C(=O)[C@@H](Nc1nc(-c2cc(F)ccc2OC)cs1)C(C)(C)C)C(=O)NS(=O)(=O)C1CC1` [Example 56], the pEC50 in test [1] (Huh-7, read-out: EC50 Range) is 7.30 to 9.00. For the same compound, the pIC50 in test [2] (class symbols) was 7.70 to 9.00.

Take `C=C[C@@H]1C[C@]1(NC(=O)[C@@H]1C[C@@H](Oc2ncc(OC)c3ccc(Cl)cc23)CN1C(=O)[C@@H](Nc1nc(-c2c(Cl)cccc2Cl)cs1)C(C)(C)C)C(=O)NS(=O)(=O)C1CC1` [Example 57]: the pEC50 in test [1] (Huh-7, read-out: EC50 Range) is 7.30 to 9.00. Further, the pIC50 in test [2] (class symbols) was 7.70 to 9.00.

`C=C[C@@H]1C[C@]1(NC(=O)[C@@H]1C[C@@H](Oc2ncc(OC)c3ccc(Cl)cc23)CN1C(=O)[C@@H](Nc1nc(-c2c(OC)cccc2OC)cs1)C(C)(C)C)C(=O)NS(=O)(=O)C1CC1` [Example 58]: in test [1] (Huh-7, read-out: EC50 Range), the pEC50 is 7.30 to 9.00. Besides, the pIC50 in test [2] (class symbols) was 7.70 to 9.00.

With `C=C[C@@H]1C[C@]1(NC(=O)[C@@H]1C[C@@H](Oc2ncc(OC)c3ccc(Cl)cc23)CN1C(=O)[C@@H](Nc1nc(-c2cc(Cl)c(C)cc2OC)cs1)C(C)(C)C)C(=O)NS(=O)(=O)C1CC1` [Example 59], in test [1] (Huh-7, read-out: EC50 Range), the pEC50 is 7.30 to 9.00. The pIC50 in test [2] (class symbols) was 7.70 to 9.00.

For `C=C[C@@H]1C[C@]1(NC(=O)[C@@H]1C[C@@H](Oc2ncc(OC)c3ccc(Cl)cc23)CN1C(=O)[C@@H](Nc1nc(-c2cc(-c3ccccc3)no2)cs1)C(C)(C)C)C(=O)NS(=O)(=O)C1CC1` [Example 85], the pEC50 in test [1] (Huh-7, read-out: EC50 Range) was 7.30 to 9.00. For the same compound, in test [2] (class symbols), the pIC50 was 7.70 to 9.00.

With `C=C[C@@H]1C[C@]1(NC(=O)[C@@H]1C[C@@H](Oc2ncc(OC)c3ccc(Cl)cc23)CN1C(=O)[C@@H](Nc1nc(-c2cc(C)c(Cl)cc2F)cs1)C(C)(C)C)C(=O)NS(=O)(=O)C1CC1` [Example 92], in test [1] (Huh-7, read-out: EC50 Range), the negative-log EC50 (pEC50) is 7.30 to 9.00. In addition, the pIC50 in test [2] (class symbols) was 7.70 to 9.00.

For `C=C[C@@H]1C[C@]1(NC(=O)[C@@H]1C[C@@H](Oc2ncc(OC)c3ccc(Cl)cc23)CN1C(=O)[C@@H](Nc1nc(-c2ccsc2)cs1)C(C)(C)C)C(=O)NS(=O)(=O)C1CC1` [Example 93], the pEC50 in test [1] (Huh-7, read-out: EC50 Range) is 7.30 to 9.00. Besides, the pIC50 in test [2] (class symbols) is 7.70 to 9.00.

Consider `COc1cnc(O[C@@H]2C[C@@H](C(=O)N[C@]3(C(=O)NS(=O)(=O)C4CC4)C[C@H]3CC(F)F)N(C(=O)[C@@H](Nc3nc(-c4ccc(F)c(C(F)(F)F)c4)cs3)C(C)(C)C)C2)c2cc(Cl)ccc12` [Example 97, (2S,4R)-4-(7-chloro-4-methoxyisoquinolin-1-yloxy)-N-((1R,2S)-1-(cyclopropylsulfonylcarbamoyl)-2-(2,2-difluoroethyl)cyclopropyl)-1-((S)-2-(4-(4-fluoro-3-(trifluoromethyl)phenyl)thiazol-2-ylamino)-3,3-dimethylbutanoyl)pyrrolidine-2-carboxamide], for which the pEC50 in test [1] (Huh-7, read-out: EC50 Range) was 7.30 to 9.00. Further, the pIC50 in test [2] (class symbols) was 7.70 to 9.00.

On to `COc1cnc(O[C@@H]2C[C@@H](C(=O)N[C@]3(C(=O)NS(=O)(=O)C4CC4)C[C@H]3CC(F)F)N(C(=O)[C@@H](Nc3nc(-c4cc(-c5ccc(Cl)cc5)no4)cs3)C(C)(C)C)C2)c2cc(Cl)ccc12` [Example 98], for which the pEC50 in test [1] (Huh-7, read-out: EC50 Range) was 7.30 to 9.00. Further, in test [2] (class symbols), the pIC50 is 7.70 to 9.00.

Consider `COc1cnc(O[C@@H]2C[C@@H](C(=O)N[C@]3(C(=O)NS(=O)(=O)C4CC4)C[C@H]3CC(F)F)N(C(=O)[C@@H](Nc3nc(-c4ccc(Oc5ccccc5)cc4)cs3)C(C)(C)C)C2)c2cc(Cl)ccc12` [Example 99], for which the pEC50 in test [1] (Huh-7, read-out: EC50 Range) was 6.70 to 7.30. The negative-log IC50 (pIC50) in test [2] (class symbols) was 6.70 to 7.70.

Consider `C=C[C@@H]1C[C@]1(NC(=O)[C@@H]1C[C@@H](Oc2ncc(OC)c3ccc(Cl)cc23)CN1C(=O)C(C)Nc1nnnn1-c1ccccc1)C(=O)NS(=O)(=O)C1CC1` (stereo partly shown) [Example 100], for which the pEC50 in test [1] (setting [3]) was 6.48. The pIC50 in test [2] (numeric values) was 6.10.
